# Data published in PubChem BioAssay (NCI).
#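 GI50 marks 50% less growth. Definition used: TGI = concentration required for complete inhibition of growth.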
# Legend:
# Assay in all cases: NCI anticancer screen, dose series, 384-well format
# [1] = test system: 786-0 renal
# [2] = test system: A498 renal
# [3] = test system: A549 NSCLC
# [4] = test system: ACHN renal
# [5] = test system: BT-549 breast
# [6] = test system: CAKI-1 renal
# [7] = test system: CCRF-CEM leukemia
# [8] = test system: COLO 205 colon
# [9] = test system: DU-145 prostate
# [10] = test system: EKVX NSCLC
# [11] = test system: HCC-2998 colon
# [12] = test system: HCT-15 colon
# [13] = test system: HL-60(TB) leukemia
# [14] = test system: HOP-62 NSCLC
# [15] = test system: HOP-92 NSCLC
# [16] = test system: HS 578T breast
# [17] = test system: HT29 colon
# [18] = test system: IGROV1 ovarian
# [19] = test system: K-562 leukemia
# [20] = test system: KM12 colon
# [21] = test system: LOX IMVI melanoma
# [22] = test system: M14 melanoma
# [23] = test system: MALME-3M melanoma
# [24] = test system: MCF7 breast
# [25] = test system: MDA-MB-231 breast
# [26] = test system: MDA-MB-435 melanoma
# [27] = test system: MDA-MB-468 breast
# [28] = test system: MOLT-4 leukemia
# [29] = test system: NCI-H226 lung
# [30] = test system: NCI-H23 lung
# [31] = test system: NCI-H322M lung
# [32] = test system: NCI-H460 NSCLC
# [33] = test system: NCI-H522 lung
# [34] = test system: NCI/ADR-RES ovarian
# [35] = test system: OVCAR-3 ovarian
# [36] = test system: OVCAR-4 ovarian
# [37] = test system: OVCAR-5 ovarian
# [38] = test system: OVCAR-8 ovarian
# [39] = test system: PC-3 prostate
# [40] = test system: RPMI-8226 leukemia
# [41] = test system: RXF 393 renal
# [42] = test system: SF-268 CNS
# [43] = test system: SF-295 CNS
# [44] = test system: SF-539 CNS
# [45] = test system: SK-MEL-28 melanoma
# [46] = test system: SK-MEL-5 melanoma
# [47] = test system: SK-OV-3 ovarian
# [48] = test system: SN12C renal
# [49] = test system: SNB-19 CNS
# [50] = test system: SNB-75 CNS
# [51] = test system: SR leukemia
# [52] = test system: SW-620 colon
# [53] = test system: T-47D breast
# [54] = test system: TK-10 renal
# [55] = test system: UACC-257 melanoma
# [56] = test system: UACC-62 melanoma
# [57] = test system: UO-31 renal
# [58] = test system: HCT-116 colon
# [59] = test system: SK-MEL-2 melanoma
structure (smiles),measurement,setting,value
COc1cc2c(Oc3ccc4[nH]c(C)cc4c3F)ccnc2cc1OCC1(N)CC1,GI50,[1],465 nM
same,TGI,[1],1630 nM
same,GI50,[2],400 nM
same,TGI,[2],1690 nM
same,GI50,[3],1080 nM
same,TGI,[3],3150 nM
same,GI50,[4],1160 nM
same,TGI,[4],3440 nM
same,GI50,[5],383 nM
same,TGI,[5],1190 nM
same,GI50,[6],881 nM
same,TGI,[6],2310 nM
same,GI50,[7],722 nM
same,TGI,[7],1880 nM
same,GI50,[8],1300 nM
same,TGI,[8],3010 nM
same,GI50,[9],2160 nM
same,TGI,[9],7360 nM
same,GI50,[10],867 nM
same,TGI,[10],2850 nM
same,GI50,[11],1370 nM
same,TGI,[11],2850 nM
same,GI50,[12],493 nM
same,TGI,[12],1760 nM
same,GI50,[13],240 nM
same,TGI,[13],463 nM
same,GI50,[14],664 nM
same,TGI,[14],2060 nM
same,GI50,[15],477 nM
same,TGI,[15],1900 nM
same,GI50,[16],294 nM
same,TGI,[16],1040 nM
same,GI50,[17],364 nM
same,TGI,[17],1450 nM
same,GI50,[18],1200 nM
same,TGI,[18],4350 nM
same,GI50,[19],421 nM
same,TGI,[19],1390 nM
same,GI50,[20],474 nM
same,TGI,[20],1740 nM
same,GI50,[21],705 nM
same,TGI,[21],1990 nM
same,GI50,[22],519 nM
same,TGI,[22],1660 nM
same,GI50,[23],375 nM
same,TGI,[23],1460 nM
same,GI50,[24],359 nM
same,TGI,[24],7730 nM
same,GI50,[25],1170 nM
same,TGI,[25],3540 nM
same,GI50,[26],228 nM
same,TGI,[26],497 nM
same,GI50,[27],253 nM
same,TGI,[27],567 nM
same,GI50,[28],223 nM
same,TGI,[28],419 nM
same,GI50,[29],1110 nM
same,TGI,[29],3020 nM
same,GI50,[30],1030 nM
same,TGI,[30],2520 nM
same,GI50,[31],1440 nM
same,TGI,[31],3420 nM
same,GI50,[32],714 nM
same,TGI,[32],2030 nM
same,GI50,[33],274 nM
same,TGI,[33],672 nM
same,GI50,[34],936 nM
same,TGI,[34],2210 nM
same,GI50,[35],278 nM
same,TGI,[35],797 nM
same,GI50,[36],543 nM
same,TGI,[36],3180 nM
same,GI50,[37],1920 nM
same,TGI,[37],3870 nM
same,GI50,[38],1510 nM
same,TGI,[38],3270 nM
same,GI50,[39],809 nM
same,TGI,[39],2290 nM
same,GI50,[40],753 nM
same,TGI,[40],1990 nM
same,GI50,[41],648 nM
same,TGI,[41],2090 nM
same,GI50,[42],683 nM
same,TGI,[42],2070 nM
same,GI50,[43],346 nM
same,TGI,[43],1250 nM
same,GI50,[44],270 nM
same,TGI,[44],1140 nM
same,GI50,[45],828 nM
same,TGI,[45],2080 nM
same,GI50,[46],416 nM
same,TGI,[46],1320 nM
same,GI50,[47],539 nM
same,TGI,[47],1920 nM
same,GI50,[48],1120 nM
same,TGI,[48],2860 nM
same,GI50,[49],821 nM
same,TGI,[49],2970 nM
same,GI50,[50],314 nM
same,TGI,[50],1070 nM
same,GI50,[51],182 nM
same,TGI,[51],350 nM
same,GI50,[52],541 nM
same,TGI,[52],1950 nM
same,GI50,[53],1600 nM
same,TGI,[53],5360 nM
same,GI50,[54],1600 nM
same,TGI,[54],3320 nM
same,GI50,[55],427 nM
same,TGI,[55],1290 nM
same,GI50,[56],396 nM
same,TGI,[56],1410 nM
same,GI50,[57],1300 nM
same,TGI,[57],2760 nM
CN(C)C1CCN(C(=O)c2ccc(NC(=O)Nc3ccc(-c4nc(N5CCOCC5)nc(N5CCOCC5)n4)cc3)cc2)CC1,GI50,[1],290 nM
same,TGI,[1],2030 nM
same,GI50,[2],188 nM
same,TGI,[2],943 nM
same,GI50,[3],22.3 nM
same,TGI,[3],546 nM
same,GI50,[4],479 nM
same,TGI,[4],5560 nM
same,GI50,[5],17.6 nM
same,TGI,[5],130 nM
same,GI50,[6],278 nM
same,TGI,[6],1230 nM
same,GI50,[8],26.7 nM
same,TGI,[8],137 nM
same,GI50,[9],15 nM
same,TGI,[9],1580 nM
same,GI50,[10],40.6 nM
same,TGI,[10],828 nM
same,GI50,[58],31.9 nM
same,TGI,[58],1970 nM
same,GI50,[12],3260 nM
same,TGI,[12],> 100000 nM
same,GI50,[13],55.4 nM
same,TGI,[13],227 nM
same,GI50,[14],52.1 nM
same,TGI,[14],351 nM
same,GI50,[15],21.1 nM
same,TGI,[15],118 nM
same,GI50,[16],< 10 nM
same,TGI,[16],45.5 nM
same,GI50,[17],28.6 nM
same,TGI,[17],1470 nM
same,GI50,[18],< 10 nM
same,TGI,[18],43.1 nM
same,GI50,[19],42.2 nM
same,TGI,[19],1820 nM
same,GI50,[20],27.7 nM
same,TGI,[20],10300 nM
same,GI50,[22],128 nM
same,TGI,[22],5250 nM
same,GI50,[23],18.9 nM
same,TGI,[23],73.5 nM
same,GI50,[24],< 10 nM
same,TGI,[24],176 nM
same,GI50,[25],11.7 nM
same,TGI,[25],15000 nM
same,GI50,[26],23.5 nM
same,TGI,[26],352 nM
same,GI50,[27],< 10 nM
same,TGI,[27],22.4 nM
same,GI50,[28],10.7 nM
same,TGI,[28],45.4 nM
same,GI50,[29],86.5 nM
same,TGI,[29],441 nM
same,GI50,[30],50.8 nM
same,TGI,[30],1120 nM
same,GI50,[31],19.5 nM
same,TGI,[31],149 nM
same,GI50,[32],18.6 nM
same,TGI,[32],1340 nM
same,GI50,[33],24.4 nM
same,TGI,[33],1610 nM
same,GI50,[35],12.1 nM
same,TGI,[35],323 nM
same,GI50,[36],< 10 nM
same,TGI,[36],50.9 nM
same,GI50,[37],50.9 nM
same,TGI,[37],12100 nM
same,GI50,[38],139 nM
same,TGI,[38],2940 nM
same,GI50,[39],18.8 nM
same,TGI,[39],765 nM
same,GI50,[41],25.2 nM
same,TGI,[41],203 nM
same,GI50,[42],36.3 nM
same,TGI,[42],1760 nM
same,GI50,[43],174 nM
same,TGI,[43],607 nM
same,GI50,[44],< 10 nM
same,TGI,[44],113 nM
same,GI50,[59],37.3 nM
same,TGI,[59],268 nM
same,GI50,[45],42.8 nM
same,TGI,[45],1150 nM
same,GI50,[46],125 nM
same,TGI,[46],390 nM
same,GI50,[47],< 10 nM
same,TGI,[47],39.8 nM
same,GI50,[48],30.3 nM
same,TGI,[48],12400 nM
same,GI50,[49],383 nM
same,TGI,[49],14400 nM
same,GI50,[50],< 10 nM
same,TGI,[50],33.9 nM
same,GI50,[51],< 10 nM
same,TGI,[51],26.4 nM
same,GI50,[52],75.2 nM
same,TGI,[52],10200 nM
same,GI50,[53],< 10 nM
same,TGI,[53],11.4 nM
same,GI50,[54],348 nM
same,TGI,[54],1690 nM
same,GI50,[55],51.9 nM
same,TGI,[55],338 nM
same,GI50,[56],24.9 nM
same,TGI,[56],142 nM
same,GI50,[57],2220 nM
same,TGI,[57],7290 nM
